# Counter-ions that a name gives are not always drawn. Like-named read-outs stand apart in the source and are kept apart here.
# Key:
# [1] = tested on: NMDA-stimulated 3H-acetylcholine release, striatum sections; assay: Inhibition of NMDA-stimulated 3H-acetylcholine release from striatum sections of the rat brain; format: cell-based
# Description: 2. Inhibition of ^3 H-acetylcholine release from striatum sections of the rat brain
# Test principle: For the test, fresh striatum sections from rat brain were rinsed with buffer solution in a special chamber and the release of the tritium-labeled acetylcholine was measured after stimulation with NMDA. Preparations having NMDA-antagonist action inhibit acetylcholine release.
# Experimental protocol: The superfusion experiments were carried out by the method of Wichman et al. (Naunyn-Schmied. Arch. Pharmacol., 338 (1988), 623-631). Rat brain sections, 0.5 mm thick, were preincubated for 30 min in 2 ml of incubation medium which contains 0.1 μmol/l of ^3 H-choline having a specific activity of 80 Ci/mmol. In each of 6 superfusion chambers, a section was transferred and superfused for 90 min at a rate of 1.5 ml/min. 2 min fraction of the superfusate were continuously collected. Each section was superfused twice with 25 μmol/l of NMDA of two minutes each time in order to stimulate the release of acetylcholine. The first stimulus (S1) takes place between the 54th and the 56th minute and the 2nd stimulus (S2) between the 76th and 78th minute. The incubation medium contained, in mmol/l: NaCl 118, KCl 4.8, CaCl2 1.2, MgSO4 1.2, NaHCO3 25, KH2 PO4 1.2 and glucose 10. The medium was saturated with Carbogen at 37° C. The pH was adjusted to 7.4 NMDA and the novel preparations to be tested were dissolved in superfusion medium. The superfusion was carried out using Mg^2+ -free medium. Tritium from the dissolved sections and from the superfusate was determined by liquid scintillation counting using a Packard® 1900 CA (Frankfurt) at a 50% efficiency.
# Calculation of the Results
# Basal release and NMDA-stimulated release for S1 and S2 were expressed in %/min of each fraction (Limberger et al, Naunyn Schmied. Arch. Pharmacol. 339 (1988), 53-61).
# The value for the stimulated release S2 /S1 was calculated for the control as 0.69±0.09. The value decreases if a substance, such as, for example, the NMDA receptor antagonist CPP (3-(+)-2-carboxypiperazin-4-ylpropyl-1-phosphonic acid) known from the literature inhibited the NMDA-stimulated release. The inhibition of the stimulated release by preparations was calculated in percent, relative to the control value, and is indicated in Table 4.
# [2] = tested on: NMDA receptor-channel complex; assay: Inhibition of 3H-MK-801 binding to membranes from rat brain; conditions: preparation concentration 50 μM; 3H-MK801 1 nM
# Description: 3. Inhibition of ^3 H-MK-801 binding to membranes from rat brain
# Test principle: MK-801 is a non-competitive antagonist which binds to ion channels coupled to NMDA receptors (Yoneda et al., Brain Res. 499 (1989), 305). Membranes from whole brain containing preparation and ^3 H-MK-801 are incubated in the test. The binding of ^3 H-MK-801 or its displacement by preparations (antagonists) is determined by radiochemical methods.
# Experimental protocol: The binding experiments are carried out by the method of Reynolds et al. (Proc. Natl. Acad. Sci. USA, 84 (1987), 7744). Membrane preparation is first carried out according to Reynolds. Test samples are then pipetted, buffer and test preparation being initially introduced, then preincubated with protein for 2 minutes, and initiated using ^3 H-MK801. The membranes are thawed at 37° C., incubated at 37° C. for 10 minutes and homogenized for 15 seconds at half the maximum speed by means of a Polytron, then used in the cool state again. The incubation medium contains: pH 7.4 Hepes buffer 20 mM, preparations in three concentrations 5 μM, 10 μM and 50 μM, membranes 500 μg/ml of test solution, ^3 H-MK801 1 nM. Incubation is carried out at room temperature (23° C.) for 60 minutes and is then stopped by filtration. For this purpose, glass fiber paper No. 32 from Schleicher and Schull, which had been soaked in 0.03% polyethyleneimine for 30 minutes on the day before the experiment are counted in 4 ml of "Packard 199™" Scintillation fluid (Frankfurt). Tritium is determined by liquid scintillation counting using a Packard 1500.
# Calculation of the results: The calculation of the binding in femtomol/mg of protein over a period of 60 min. was carried out using a small calculator (HP-97). If a substance antagonizes the binding, the value decreases. Substance activities are indicated in Table 5 as percentages, i.e. in % binding compared to the control. The activity of the comparison preparation CPP (3-(+)-2-carboxypiperazin-4-ylpropyl-1-phosphonic acid) at 5 μM, 10 μM and 50 μM is always determined to check the test.
# [3] = tested on: high affinity 3H-D-aspartate absorption, synaptic vesicles (synaptosomes) from rat cortex; assay: "High affinity" absorption of 3H-aspartate in a vesicle preparation from rat brain; format: biochemical; conditions: relative to control values (100%)
# Description: 1. "High affinity" absorption of ^3 H-aspartate in a vesicle preparation from rat brain.
# Test principle: Fresh synaptic vesicles (synaptosomes) from rat cortex are incubated with buffer solution and ^3 H-D-aspartate and ^3 H-D-aspartate in the vesicles is measured. Preparations which in comparison to control synaptosomes increase the high affinity ^3 H-D-aspartate absorption and those which prevent the loss of ^3 H-D-aspartate by reliberation are regarded as particularly interesting.
# Experimental protocol: The experiments for ^3 H-D-aspartate absorption were carried out by the method of Anand et al. (Biochem. Pharmacol., 35 (1986), 1055-1057). The synaptic vesicles were dissected out of cerebral cortex from male Sprague-Dawley rats. The preparations were tested at four concentrations as double samples in parallel with control samples containing buffer. The incubation medium (pH 7.4) contains: 1.2 mM KH2 PO4, 5 mM KCl, 5 mM pyruvate, 1.2 mM glucose, 1.2 mM MgCl2, 114 mM NaCl, 25 mM NaHCO3. For the non-specific ^3 H-D-aspartate absorption, NaCl was replaced by 114 mM choline chloride and NaHCO3 by 25 mM KHCO3. An aliquot of the vesicle suspension (about 25 μg/ml of test solution) was added to the test sample which was temperature controlled at 37° C. and aerated with Carbogen (5% CO2, 95% O2) and preincubated for 2 minutes. The three minutes incubation for the amino acid absorption was started by addition of 50 μl of ^3 H-D-aspartate (specific activity 25 Ci/mmol, 10 pmol/ml of test solution). The vesicles were separated from the incubation medium by filtration and additional washing of the adhering labeled amino acids using a Titertek cell harvester (Flow Laboratories, Meckenheim). The ^3 H-D-aspartate absorption was measured by means of a liquid scintillation counter (Canberra-Packard, Model 1500, Frankfurt).
# The preparation activity is indicated in percent of the specific ^3 H-D-aspartate absorption, relative to control values (100%), in Table 3. Adenosine triphosphate (ATP) was used for comparison as the standard substance (see Table 3) and at 1 mM caused a 35% increase in the ^3 H-D-aspartate absorption.
# NMDA-induced cramps = assay: Inhibition of NMDA-induced cramps in the mouse; format: in vivo; conditions: po, 1 h
# Description: 4. Inhibition of NMDA-induced-cramps in the mouse
# The examples listed below show neuroprotective activity in that they antagonize the cramps induced by NMDA (N-methyl-(D)-aspartate). To this end, intravenous injections of 20-30 mg/kg of NMDA are carried out on a male NMRI (Naval Medical Research Institute) mice of 22-24 g body weight, which leads to stereotypes, clonic cramps and in the majority of cases to mortality. In order to investigate an NMDA-antagonist activity of the test substances, they are administered orally one hour before NMDA. The animals are then observed for the abovementioned symptoms for up to 60 min. The number of animals with clonic cramps and the incidence of mortality, expressed in percent change compared to the control group, is regarded as the evaluation criterion.
# [4] = Toxicity (LD50) in the mouse; conditions: in vivo, iv
# Source text: As the examples investigated show considerable differences in toxicity compared to the standard substances, the LD50 values are also listed in Table 6,
# [5] = tested on: CA1 pyramidal cells of the hippocampus after forebrain ischemia; assay: Neuroprotection after forebrain ischemia in the gerbil; conditions: 15 minutes before ischemia; for Cell necroses (% change): histopathological score CA1, treated versus control group; for Behavior score (% change): treated versus control group
# Description: A 5-minutes' ischemia of the forebrain with subsequent recirculation is produced in 20 male Mongolian gerbils under halothane anesthesia by bilateral closure of the corotid artery by means of aneurysm clips. 7 days later, the animals are decapitated under halothane anesthesia, the brains are fixed by immersion in Carnoy solution and the extent of neuron damage in the CA1 region of the hippocampus is determined "blind" with the aid of a 5-stage histopathological score. The test substance is administered intraperitoneally or orally 15 minutes before ischemia to each group of 10 gerbils. One ischemic control group, also of 10 animals, is treated with the respective solvents per test substance.
# [6] = preparation concentration 10 μM, 25 μmol/l NMDA stimulus, relative to control S2/S1, read-out: Inhibition of 3H-acetylcholine release from striatum sections, Inhibition (%)
# [7] = preparation concentration 500 μM
# [8] = preparation concentration 10 μM
# [9] = 50 mg/kg p.o., one hour before NMDA i.v., change compared to control group, read-out: Inhibition of convulsions
# [10] = read-out: Inhibition of mortality
# [11] = preparation concentration 100 μM
# [12] = read-out: Inhibition of 3H-acetylcholine release from striatum sections, Inhibition (%)
structure (smiles),measurement,setting,value
"O=C(O)C1CN(CCCP(=O)(O)O)CCN1 (racemic) [CPP, 3-(+)-2-carboxypiperazin-4-ylpropyl-1-phosphonic acid, reference compound]",inhibition at 10 µM,[1]; [6],30%
same,"Inhibition of 3H-MK-801 binding to the NMDA receptor-channel complex, inhibition (%)",[2],81%
"CC(C)[C@@H]1CC[C@@H](C)C[C@H]1OC(=O)C1CC(C(=O)O)=NO1 (single isomer, unassigned; (-)) [Example 57, (-)-menthyl-3-carboxy-2-isoxazoline-5-yl-carboxylatedicyclohexylammonium salt]","Inhibition of 3H-MK-801 binding to the NMDA receptor-channel complex, inhibition (%)",[2],43%
"NCc1cc(C(=O)O)no1 [Example 1, 3-Carboxy-5-aminomethylisoxazole]","Stimulation of the 3H-D-aspartate absorption, Stimulation (%)",[3]; [7],15%
same,inhibition at 10 µM,[1]; [6],13%
same,inhibition in vivo at 63 mg/kg,"NMDA-induced cramps; 63 mg/kg p.o., one hour before NMDA i.v., change compared to control group, read-out: Inhibition of convulsions",50%
same,LD50,[4],> 200 mg/kg
"O=C(O)c1cc(CNCc2ccccc2)on1 [Example 2, 5-Benzylaminomethyl-3-carboxyisoxazole]","Stimulation of the 3H-D-aspartate absorption, Stimulation (%)",[3]; [7],12%
same,"Inhibition of 3H-MK-801 binding to the NMDA receptor-channel complex, inhibition (%)",[2],10%
"Cl.NCc1cc(CCC(=O)OCc2ccccc2)no1 [Example 5, Benzyl 5-aminomethylisoxazole-3-propionate hydrochloride]","Stimulation of the 3H-D-aspartate absorption, Stimulation (%)",[3]; [8],26%
same,"Inhibition of 3H-MK-801 binding to the NMDA receptor-channel complex, inhibition (%)",[2],78%
"CC(C)[C@H]1CC[C@H](C)C[C@@H]1OC(=O)CCc1cc(CN)on1 [Example 7, (+)-menthyl 5-aminomethylisoxazole-3-propionate toluene-4-sulfonate]",inhibition at 10 µM,[1]; [6],28%
"CC(C)[C@@H]1CC[C@@H](C)C[C@H]1OC(=O)CCc1cc(CN)on1 [Example 8, (-)-menthyl 5-aminomethylisoxazole-3-propionate toluene-4-sulfonate]","Stimulation of the 3H-D-aspartate absorption, Stimulation (%)",[3]; [8],13%
same,inhibition at 10 µM,[1]; [6],30%
same,inhibition in vivo at 50 mg/kg,NMDA-induced cramps; [9],70%
same,inhibition in vivo at 50 mg/kg,NMDA-induced cramps; [10],100%
same,LD50,[4],50 to 100 mg/kg
same,Cell necroses (% change),[5]; 50 mg/kg p.o.,-46 % change
same,Behavior score (% change),[5]; 50 mg/kg p.o.,0 % change
"NCc1cc(CCC(=O)O)no1 [Example 12, 5-Aminomethylisoxazole-3-propionic acid]","Stimulation of the 3H-D-aspartate absorption, Stimulation (%)",[3]; [7],17%
same,inhibition in vivo at 50 mg/kg,NMDA-induced cramps; [9],45%
same,inhibition in vivo at 50 mg/kg,NMDA-induced cramps; [10],60%
same,LD50,[4],> 100 mg/kg
same,Cell necroses (% change),[5]; 10 mg/kg i.p.,-32 % change
same,Behavior score (% change),[5]; 10 mg/kg i.p.,0 % change
same,Cell necroses (% change),[5]; 50 mg/kg p.o.,-14 % change
same,Behavior score (% change),[5]; 50 mg/kg p.o.,0 % change
"CC(C)[C@@H]1CC[C@@H](C)C[C@H]1OC(=O)CCc1cc(C[N+](C)(C)C)on1 [Example 18, (-)-Menthyl 5-trimethylammoniomethylisoxazole-3-propionate iodide]","Stimulation of the 3H-D-aspartate absorption, Stimulation (%)",[3]; [11],46%
same,inhibition at 10 µM,[1]; [6],22%
same,Cell necroses (% change),[5]; 50 mg/kg p.o.,-23 % change
same,Behavior score (% change),[5]; 50 mg/kg p.o.,+15 % change
"CC(C)[C@H]1CC[C@H](C)C[C@@H]1OC(=O)CCc1cc(CNC(=O)[C@@H](N)Cc2ccccc2)on1 [Example 20, (+)-Menthyl 5-(L-phenylalanylamino)methylisoxazole-3propionate hydrochloride]",inhibition at 10 µM,[1]; [6],18%
same,inhibition in vivo at 50 mg/kg,NMDA-induced cramps; [9],10%
same,inhibition in vivo at 50 mg/kg,NMDA-induced cramps; [10],100%
same,LD50,[4],25 to 50 mg/kg
"COC(=O)CCc1cc(CNC(=O)[C@@H](N)Cc2ccccc2)on1.Cl [Example 22, Methyl 5-(L-phenylalanylamino)methylisoxazole-3-propionate hydrochloride]","Stimulation of the 3H-D-aspartate absorption, Stimulation (%)",[3]; [11],23%
same,inhibition at 10 µM,[1]; [6],15%
"O=C(O)CCC1=NOC(c2ccccn2)C1 (stereo not drawn) [Example 33, 3-(2-Carboxyethyl)-5-(2-pyridyl)-2-isoxazoline]",inhibition at 10 µM,[1]; [6],26%
"COC(=O)CCC1CC(CN)=NO1 (stereo not drawn) [Example 34, Methyl 3-aminomethyl-2-isoxazoline-5-propionate toluene-4-sulfonate]",inhibition at 10 µM,[1]; [12],9%
"O=C(O)C1=NOC(C(=O)O)C1 (stereo not drawn) [Example 56, 3,5-dicarboxyl-2-isoxazoline]","Stimulation of the 3H-D-aspartate absorption, Stimulation (%)",[3]; [7],17%
same,inhibition at 10 µM,[1]; [6],11%
"O=C(O)CCc1cc(CO)on1 [Example 59, 5-Hydroxylmethyl-isoxazole-3-propionate sodium salt]",inhibition at 10 µM,[1]; [12],26%

# Source: patent US5273989A, “3,5-disubstituted 2-isoxazolines and isoxazoles, agents containing them and their use” (Hoechst Aktiengesellschaft, priority 1990, dated 1993)
